PubChem BioAssay AID2060885 (Molecular Pharmacology Branch, DTP, NCI, 2025)

System: NCI-H23 complex spheroids with HUVEC/MSC, viability
Assay: Anticancer human tumor NCI-H23 cell line growth inhibition [RAS];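 also: spheroids exposed to compound for 7 days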;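 as to viability, T/C: 100% = DMSO vehicle control viability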
Conditions: for IC50: curve of first compound; for viability, T/C: stronger effect = lower value
How it was run: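 Tumour cells grown as complex spheroids with HUVEC endothelial cells and mesenchymal stem cells, treated with RAS pathway inhibitor combinations. Each agent spans half-log steps from near clinical Cmax, or 10 microM where Cmax is unknown.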

## Cc1nc(N2CCC3(CC2)COC(C)C3N)c(CO)nc1Sc1ccnc(N)c1Cl (configuration not stated) + C=CC(=O)N1CCN(c2nc(OCC3CCCN3C)nc3c(F)c(-c4nc(N)cc(C)c4C(F)(F)F)c(Cl)cc23)C(C)C1
Second compound 0.00316 µM
  IC50: < 31.6 nM
Second compound 0.01 µM
  IC50: < 31.6 nM
Second compound 0.0316 µM
  IC50: < 31.6 nM
Second compound 0.1 µM
  IC50: < 31.6 nM
Second compound 0.316 µM
  IC50: < 31.6 nM
Second compound 1 µM
  IC50: < 31.6 nM
Second compound 0.00316 µM, first compound 0.0316 µM
  viability, T/C: 47.4%
Second compound 0.00316 µM, first compound 0.1 µM
  viability, T/C: 48.5%
Second compound 0.00316 µM, first compound 0.316 µM
  viability, T/C: 32%
Second compound 0.00316 µM, first compound 1 µM
  viability, T/C: 27%
Second compound 0.00316 µM, first compound 3.16 µM
  viability, T/C: 31.7%
Second compound 0.00316 µM, first compound 10 µM
  viability, T/C: 25.4%
Second compound 0.01 µM, first compound 0.0316 µM
  viability, T/C: 44.3%
Second compound 0.01 µM, first compound 0.1 µM
  viability, T/C: 42.3%
Second compound 0.01 µM, first compound 0.316 µM
  viability, T/C: 26.7%
Second compound 0.01 µM, first compound 1 µM
  viability, T/C: 28.5%
Second compound 0.01 µM, first compound 3.16 µM
  viability, T/C: 22.6%
Second compound 0.01 µM, first compound 10 µM
  viability, T/C: 16.4%
Second compound 0.0316 µM, first compound 0.0316 µM
  viability, T/C: 36%
Second compound 0.0316 µM, first compound 0.1 µM
  viability, T/C: 33.6%
Second compound 0.0316 µM, first compound 0.316 µM
  viability, T/C: 24.7%
Second compound 0.0316 µM, first compound 1 µM
  viability, T/C: 26.7%
Second compound 0.0316 µM, first compound 3.16 µM
  viability, T/C: 21.1%
Second compound 0.0316 µM, first compound 10 µM
  viability, T/C: 20%
Second compound 0.1 µM, first compound 0.0316 µM
  viability, T/C: 37.2%
Second compound 0.1 µM, first compound 0.1 µM
  viability, T/C: 35.5%
Second compound 0.1 µM, first compound 0.316 µM
  viability, T/C: 25.8%
Second compound 0.1 µM, first compound 1 µM
  viability, T/C: 23.9%
Second compound 0.1 µM, first compound 3.16 µM
  viability, T/C: 19.7%
Second compound 0.1 µM, first compound 10 µM
  viability, T/C: 17.2%
Second compound 0.316 µM, first compound 0.0316 µM
  viability, T/C: 31.1%
Second compound 0.316 µM, first compound 0.1 µM
  viability, T/C: 31.6%
Second compound 0.316 µM, first compound 0.316 µM
  viability, T/C: 30.2%
Second compound 0.316 µM, first compound 1 µM
  viability, T/C: 23.2%
Second compound 0.316 µM, first compound 3.16 µM
  viability, T/C: 23.3%
Second compound 0.316 µM, first compound 10 µM
  viability, T/C: 17.5%
Second compound 1 µM, first compound 0.0316 µM
  viability, T/C: 36.6%
Second compound 1 µM, first compound 0.1 µM
  viability, T/C: 32.8%
Second compound 1 µM, first compound 0.316 µM
  viability, T/C: 26.6%
Second compound 1 µM, first compound 1 µM
  viability, T/C: 18.6%
Second compound 1 µM, first compound 3.16 µM
  viability, T/C: 22.7%
Second compound 1 µM, first compound 10 µM
  viability, T/C: 17.9%
